Results reported in patent US20230149732A1, “COMBINED NITRITE AND LIGHT TREATMENT TO PREVENT DEVICE THROMBOSIS” (Wake Forest University Health Sciences, priority 2021, published 2023).
Like-named read-outs stand apart in the source and are kept apart here.

Experiments:
platelet activation = assay: Inhibition of platelet activation, with or without RBCs (flow cytometry); format: cell-based; details: for effect on nitrite-mediated inhibition of platelet activation by RBCs: NO scavenger or RBC surface thiol blocker added
From the text: This disclosure also teaches that far-red and near infrared light dramatically enhance nitrite bioactivation by RBCs. Far-red light (about 600-750 nm) and near infrared light (about 700-1400 nm) have been used clinically for improved wound healing, tissue generation, reduction of inflammation, and increasing cerebral blood flow to improve cognition. The mechanism for these actions has been attributed generally to increased blood flow, tissue oxygenation, and angiogenesis secondary to improved mitochondrial function attributed to cytochrome c oxidase redox state and function. However, it was not clear how improvement in cytochrome c oxidation state could account for increased blood flow and other effects of infrared/far-red light. […] The data shown in FIG. 2 strongly supports this premise (note scales). Previous work using inhibition of platelet activation as a measure of nitrite bioactivation has shown that (i) RBCs are necessary for nitrite-mediated inhibition of platelet activation (while other NO donors' ability to inhibit platelet activation is blunted by the presence of RBCs), (ii) this action is abrogated by an NO scavenger, (iii) this action is achieved with plasma levels of nitrite easily attained through dietary nitrate interventions, and (iv) this action involves RBC surface thiols. […] This is attributed to accumulating steady state NO species on the surface of the RBCs. The effects of far-red light without nitrite treatment are small and variable, perhaps reflecting small amounts of nitrite present at steady state and varying between individuals due to diet and other factors.
Nitrite addition to activated platelets in the absence of RBCs has no effect (FIG. 2A—note scale is expanded). […] This interaction is depicted in FIG. 1. It has been shown that Hb is the primary erythrocytic nitrite reductase and that nitrite bioactivation by RBCs involves NO. […] Nitrite is the best suited NO donor for treating thrombosis as it requires the presence of RBCs to work while others efficacy is blunted by RBCs (via the reaction described in Equation 2).
where the ferric hemin reversibly binds NO, GSH reduces the hemin and forms a thiyl radical which then reacts with NO, similar to a mechanism proposed for DNIC formation. The formation of the thiyl radical is supported by lower GSNO yield when the thiyl radical trap 5,5-dimethyl-1-pyrroline N-oxide (DMPO) is added (FIG. 4D). Thus, this system of hemin, NO and thiol (all present in the RBC after nitrite addition) yield both species of interest: nitrosothiols and heme-nitrosyls (which can bind to a surface thiol). Studies using RBCs. […] This inhibition was abrogated by pre-treatment with the thiol binding agent N-ethyl maleimide (NEM) (FIG. 5).

oxygenated Hb (OxyHb) = oxygenated Hb (OxyHb) (Homo sapiens, UniProt P68871+P69905); details: NO + HbO2; cited from earlier work
[1] = target: T1, partially deoxygenated hemoglobin (Homo sapiens, UniProt P68871+P69905); details: cited from earlier work
clotting = system: clotting
Description: (§1) Also disclosed herein is a mechanism though which […] potentiates the anti-thrombotic effects of far-red light. […] The effects of combining far-red light and nitrite in inhibiting several different measures of clotting using different agonists are disclosed herein.
(§2) The effects of nitrite and light on reducing clotting in blood were conducted by comparing sham, light alone, nitrite alone and the combination.

[2] = target: T1, partially deoxygenated hemoglobin; details: hemoglobin 10 mM (in heme) in blood, pseudo first order
Description: In addition, nitrite was measured to assess the effective dose that a patient may encounter. […] For all experiments, the same blood was used for control and treatment and the same amount of calcium infused at the same timepoints. For the example shown in FIG. 11A, no calcium was infused. […] For the example shown in FIG. 11B, calcium additions was added at the 1.5 hour mark and at each of the next two 0.5 hour intervals (1.5 mM; 0.75 mM; and 0.375 mM).

platelet adhesion = details: dual treatment: nitrite plus far-red light
From the text: as §1

clotting in blood = details: TEG, RBCs present
Description: as §2

[3] = system: device thrombosis in extracorporeal circuit
From the text: Two Mito MD LED sources were employed with the tubing sandwiched in between. The power of the LEDs is reported as 100 mW/cm^2 at 6 inches from the device and we measured 35 mW/cm^2 at this distance and 230 mW/cm^2 directly at the surface. […] The system was also maintained at the desired temperature using a circulating water bath attached to the oxygenator representative of use conditions. The blood was deoxygenated by flowing nitrogen through the oxygenator to mimic venous blood from a real patient and hemoglobin saturation was about 70% or so, as tested using absorption spectroscopy and our integrating sphere detector for turbid samples.
Disclosed herein are outcome measures to test the efficacy of the device, including: • (1) Patency of the device. Whether enough clotting will occur to impede flow enough so that the experiment needs to be stopped before six hours of testing. The time to stopping was recorded. • (2) Pressure as a function of time. The pressure in the circuit was recorded every 15 minutes with higher pressures indicating occlusive clotting. • (3) Visual inspection for clotting. Tubing was examined thoroughly every 15 minutes with flashlights and photographs were taken to record the size and number of visual clots. • (4) Blood aliquots were collected every 15 minutes to measure oxygenation state of hemoglobin (so the nitrogen flow can be adjusted). A spectrometer was used with an integrating sphere that collected scattered light to get true absorption of turbid samples. […] RBCS were sedimented and hemoglobin concentration in the supernatant determined by absorption spectroscopy. • (7) Platelet count was assessed as part of a complete blood count. Platelet count goes down as platelets adhere and aggregate in the system.
In addition, nitrite was measured to assess the effective dose that a patient may encounter. […] For all experiments, the same blood was used for control and treatment and the same amount of calcium infused at the same timepoints.
The system was tested by comparing treatment to control in terms of patency, platelet count, and platelet activation.

deoxygenated RBCs = assay: Heme nitrosyl export from deoxygenated RBCs incubated with nitrite (tri-iodide chemiluminescence assay); format: cell-based; details: with versus without hemopexin

T1 sequence (P69905 2-142 limits assumed): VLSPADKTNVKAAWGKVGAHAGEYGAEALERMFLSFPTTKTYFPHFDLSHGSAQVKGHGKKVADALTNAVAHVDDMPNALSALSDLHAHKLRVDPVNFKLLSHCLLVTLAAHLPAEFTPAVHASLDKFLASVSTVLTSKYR
T1 sequence (P68871 2-147 limits assumed): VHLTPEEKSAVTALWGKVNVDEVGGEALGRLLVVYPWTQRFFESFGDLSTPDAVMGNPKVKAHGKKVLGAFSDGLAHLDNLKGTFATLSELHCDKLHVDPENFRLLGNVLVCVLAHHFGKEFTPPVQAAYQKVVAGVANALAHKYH
Chain of oxygenated Hb (OxyHb) (P69905 2-142 limits assumed): as the sequence (P69905 2-142 limits assumed) above
Chain of oxygenated Hb (OxyHb) (P68871 2-147 limits assumed): as the sequence (P68871 2-147 limits assumed) above

CC(=O)N[C@H](C(=O)O)C(C)(C)SN=O (racemic) [SNAP, S-Nitroso-N-acetylpenicillamine]
platelet activation with RBCs treated with nitrosating agent, then washed (platelet activation; RBCs treated with SNAP, excess removed): caused the RBCs to inhibit platelet activation
effect of light illumination on platelet activation with treated RBCs (platelet activation; RBCs treated, washed, then illuminated): Light potentiates effects

CC1(C)N([O])C(c2ccc(C(=O)O)cc2)=[N+]([O-])C1(C)C [CPTIO]
effect on nitrite-mediated inhibition of platelet activation by RBCs (platelet activation): abrogated

O=C(O)c1cc(SSc2ccc([N+](=O)[O-])c(C(=O)O)c2)ccc1[N+](=O)[O-] [DTNB]
effect on nitrite-mediated inhibition of platelet activation by RBCs (platelet activation): abrogates inhibition of platelets

CCN1C(=O)C=CC1=O [NEM, N-ethyl maleimide]
effect on platelet inhibition by SNAP-treated RBCs (platelet activation; pre-treatment with thiol binding agent): abrogated

[N]=O [NO, Nitric oxide]
rate constant (oxygenated Hb (OxyHb)): 6-8×10^7 M^−1s^−1

O=NO [nitrite]
bimolecular rate constant [1]: 1 M⁻¹ s⁻¹
reduction of clotting (clotting; combination of nitrite and light, all assays): universally effective in reducing clotting
reduction of clotting (clotting; monotherapy): mixed effects
lifetime of the nitrite [2]: about 100 seconds
platelet adhesion (platelet adhesion): decreases platelet adhesion
rate of clot growth (clotting in blood): decreasing the rate of clot growth
time to initial fibrin formation (R-time) (clotting in blood): increasing the time to initial fibrin formation
effect on platelet activation (platelet activation; RBCs present, nitrite alone): decreases platelet activation
inhibition of platelet activation (platelet activation; RBCs present, nitrite plus far-red light 660 nm, ~5 min): dramatically enhances nitrite bioactivation by RBCs
effect on platelet activation (platelet activation; nitrite added to activated platelets, absence of RBCs): has no effect
survival time of treated system longer than control circuit, average ([3]; combined nitrite and red light): 220%
decrease in the number of platelets, first to last sample ([3]; treated system (nitrite plus light), complete blood count, averaged): 32%
pressure in the circuit ([3]; whole blood, calcium infused, nitrite plus far-red light from the 1.5 hour mark): decreased to less than that of the control circuit

B1: hemopexin: a plasma protein with extremely high affinity for free heme (protein, UniProt P02790 24-462, looked up)
Hemopexin: TPLPPTSAHGNVAEGETKPDPDVTERCSDGWSFDATTLDDNGTMLFFKGEFVWKSHKWDRELISERWKNFPSPVDAAFRQGHNSVFLIKGDKVWVYPPEKKEKGYPKLLQDEFPGIPSPLDAAVECHRGECQAEGVLFFQGDREWFWDLATGTMKERSWPAVGNCSSALRWLGRYYCFQGNQFLRFDPVRGEVPPRYPRDVRDYFMPCPGRGHGHRNGTGHGNSTHHGPEYMRCSPHLVLSALTSDNHGATYAFSGTHYWRLDTSRDGWHSWPIAHQWPQGPSAVDAAFSWEEKLYLVQGTQVYVFLTKGGYTLVSGYPKRLEKEVGTPHGIILDSVDAAFICPGSSRLHIMAGRRLWWLDLKSGAQATWTELPWPHEKVDGALCMEKSLGPNSCSANGPGLYLIHGPNLYCYSDVEKLNAAKALPQPQNVTSLLGCTH
NO species in the supernatant (deoxygenated RBCs): significantly greater NO
